Measurements: ChEMBL document CHEMBL1212758 (Antimicrob Agents Chemother, 2010)
pEC50: −log10 of the molar value.

Assays:
[1] = test system: Macacine alphaherpesvirus 1; test: Antiviral activity against Macacine herpesvirus 1 isolate MJ3 infected in african green monkey Vero cells by plaque reduction assay; format: functional, organism-based; settings: Macacine alphaherpesvirus 1, isolate MJ3, Vero
Human alphaherpesvirus 1 [2] = test: Antiviral activity against HSV1 infected in african green monkey Vero cells by plaque reduction assay; format: functional, organism-based; settings: Human alphaherpesvirus 1, Vero
[3] = test system: Macacine alphaherpesvirus 1; test: Antiviral activity against Macacine herpesvirus 1 isolate A4 infected in african green monkey Vero cells by plaque reduction assay; format: functional, organism-based; settings: Macacine alphaherpesvirus 1, isolate A4, Vero
[4] = test system: Macacine alphaherpesvirus 1; test: Antiviral activity against Macacine herpesvirus 1 isolate A6 infected in african green monkey Vero cells by plaque reduction assay; format: functional, organism-based; settings: Macacine alphaherpesvirus 1, isolate A6, Vero
[5] = test system: Macacine alphaherpesvirus 1; test: Antiviral activity against Macacine herpesvirus 1 isolate A2 infected in african green monkey Vero cells by plaque reduction assay; format: functional, organism-based; settings: Macacine alphaherpesvirus 1, isolate A2, Vero
[6] = test system: Macacine alphaherpesvirus 1; test: Antiviral activity against Macacine herpesvirus 1 isolate MR10 infected in african green monkey Vero cells by plaque reduction assay; format: functional, organism-based; settings: Macacine alphaherpesvirus 1, isolate MR10, Vero
Human alphaherpesvirus 2 [7] = test: Antiviral activity against HSV2 infected in african green monkey Vero cells by plaque reduction assay; format: functional, organism-based; settings: Human alphaherpesvirus 2, Vero
[8] = test system: Macacine alphaherpesvirus 1; test: Antiviral activity against Macacine herpesvirus 1 isolate A1 infected in african green monkey Vero cells by plaque reduction assay; format: functional, organism-based; settings: Macacine alphaherpesvirus 1, isolate A1, Vero
[9] = test system: Macacine alphaherpesvirus 1; test: Antiviral activity against Macacine herpesvirus 1 isolate MR3 infected in african green monkey Vero cells by plaque reduction assay; format: functional, organism-based; settings: Macacine alphaherpesvirus 1, isolate MR3, Vero
[10] = test system: Macacine alphaherpesvirus 1; test: Antiviral activity against Macacine herpesvirus 1 isolate MR11 infected in african green monkey Vero cells by plaque reduction assay; format: functional, organism-based; settings: Macacine alphaherpesvirus 1, isolate MR11, Vero
[11] = test system: Macacine alphaherpesvirus 1; test: Antiviral activity against Macacine herpesvirus 1 isolate MR2 infected in african green monkey Vero cells by plaque reduction assay; format: functional, organism-based; settings: Macacine alphaherpesvirus 1, isolate MR2, Vero
[12] = test system: Macacine alphaherpesvirus 1; test: Antiviral activity against Macacine herpesvirus 1 isolate MR7 infected in african green monkey Vero cells by plaque reduction assay; format: functional, organism-based; settings: Macacine alphaherpesvirus 1, isolate MR7, Vero
[13] = test system: Macacine alphaherpesvirus 1; test: Antiviral activity against Macacine herpesvirus 1 isolate A5 infected in african green monkey Vero cells by plaque reduction assay; format: functional, organism-based; settings: Macacine alphaherpesvirus 1, isolate A5, Vero
[14] = test system: Macacine alphaherpesvirus 1; test: Antiviral activity against Macacine herpesvirus 1 isolate A3 infected in african green monkey Vero cells by plaque reduction assay; format: functional, organism-based; settings: Macacine alphaherpesvirus 1, isolate A3, Vero
[15] = test system: Macacine alphaherpesvirus 1; test: Antiviral activity against Macacine herpesvirus 1 isolate MC2 infected in african green monkey Vero cells by plaque reduction assay; format: functional, organism-based; settings: Macacine alphaherpesvirus 1, isolate MC2, Vero
[16] = test system: Macacine alphaherpesvirus 1; test: Antiviral activity against Macacine herpesvirus 1 isolate MJ1 infected in african green monkey Vero cells by plaque reduction assay; format: functional, organism-based; settings: Macacine alphaherpesvirus 1, isolate MJ1, Vero
[17] = test system: Macacine alphaherpesvirus 1; test: Antiviral activity against Macacine herpesvirus 1 isolate E2490 infected in african green monkey Vero cells by plaque reduction assay; format: functional, organism-based; settings: Macacine alphaherpesvirus 1, isolate E2490, Vero
[18] = test system: Macacine alphaherpesvirus 1; test: Antiviral activity against Macacine herpesvirus 1 isolate MR4 infected in african green monkey Vero cells by plaque reduction assay; format: functional, organism-based; settings: Macacine alphaherpesvirus 1, isolate MR4, Vero
[19] = test system: Macacine alphaherpesvirus 1; test: Antiviral activity against Macacine herpesvirus 1 isolate MR9 infected in african green monkey Vero cells by plaque reduction assay; format: functional, organism-based; settings: Macacine alphaherpesvirus 1, isolate MR9, Vero
[20] = test system: Macacine alphaherpesvirus 1; test: Antiviral activity against Macacine herpesvirus 1 isolate MP1 infected in african green monkey Vero cells by plaque reduction assay; format: functional, organism-based; settings: Macacine alphaherpesvirus 1, isolate MP1, Vero
[21] = test system: Macacine alphaherpesvirus 1; test: Antiviral activity against Macacine herpesvirus 1 isolate MR5 infected in african green monkey Vero cells by plaque reduction assay; format: functional, organism-based; settings: Macacine alphaherpesvirus 1, isolate MR5, Vero
[22] = test system: Macacine alphaherpesvirus 1; test: Antiviral activity against Macacine herpesvirus 1 isolate MR6 infected in african green monkey Vero cells by plaque reduction assay; format: functional, organism-based; settings: Macacine alphaherpesvirus 1, isolate MR6, Vero
[23] = test system: Macacine alphaherpesvirus 1; test: Antiviral activity against Macacine herpesvirus 1 isolate MR8 infected in african green monkey Vero cells by plaque reduction assay; format: functional, organism-based; settings: Macacine alphaherpesvirus 1, isolate MR8, Vero
[24] = test system: Macacine alphaherpesvirus 1; test: Antiviral activity against Macacine herpesvirus 1 isolate MJ2 infected in african green monkey Vero cells by plaque reduction assay; format: functional, organism-based; settings: Macacine alphaherpesvirus 1, isolate MJ2, Vero
[25] = test system: Macacine alphaherpesvirus 1; test: Antiviral activity against Macacine herpesvirus 1 infected in rabbits assessed as survival after 5 months; format: functional
[26] = test system: Macacine alphaherpesvirus 1; test: Antiviral activity against Macacine herpesvirus 1 isolate MC1 infected in african green monkey Vero cells by plaque reduction assay; format: functional, organism-based; settings: Macacine alphaherpesvirus 1, isolate MC1, Vero
[27] = test system: Macacine alphaherpesvirus 1; test: Antiviral activity against Macacine herpesvirus 1 isolate MR1 infected in african green monkey Vero cells by plaque reduction assay; format: functional, organism-based; settings: Macacine alphaherpesvirus 1, isolate MR1, Vero
[28] = test system: Macacine alphaherpesvirus 1; test: Ratio of acyclovir EC50 to compound EC50 for Macacine herpesvirus 1 isolate MR2 infected in african green monkey Vero cells; format: functional
[29] = test system: Macacine alphaherpesvirus 1; test: Ratio of acyclovir EC50 to compound EC50 for Macacine herpesvirus 1 isolate MJ1 infected in african green monkey Vero cells; format: functional
[30] = test system: Macacine alphaherpesvirus 1; test: Ratio of acyclovir EC50 to compound EC50 for Macacine herpesvirus 1 isolate A2 infected in african green monkey Vero cells; format: functional
[31] = test system: Macacine alphaherpesvirus 1; test: Ratio of acyclovir EC50 to compound EC50 for Macacine herpesvirus 1 isolate MR3 infected in african green monkey Vero cells; format: functional
[32] = test system: Macacine alphaherpesvirus 1; test: Ratio of acyclovir EC50 to compound EC50 for Macacine herpesvirus 1 isolate MR8 infected in african green monkey Vero cells; format: functional
[33] = test system: Macacine alphaherpesvirus 1; test: Ratio of acyclovir EC50 to compound EC50 for Macacine herpesvirus 1 isolate A3 infected in african green monkey Vero cells; format: functional
[34] = test system: Macacine alphaherpesvirus 1; test: Ratio of acyclovir EC50 to compound EC50 for Macacine herpesvirus 1 isolate MR11 infected in african green monkey Vero cells; format: functional
[35] = test system: Macacine alphaherpesvirus 1; test: Ratio of acyclovir EC50 to compound EC50 for Macacine herpesvirus 1 isolate MR1 infected in african green monkey Vero cells; format: functional
[36] = test system: Macacine alphaherpesvirus 1; test: Ratio of acyclovir EC50 to compound EC50 for Macacine herpesvirus 1 isolate A6 infected in african green monkey Vero cells; format: functional
[37] = test system: Macacine alphaherpesvirus 1; test: Ratio of acyclovir EC50 to compound EC50 for Macacine herpesvirus 1 isolate MR9 infected in african green monkey Vero cells; format: functional
[38] = test system: Macacine alphaherpesvirus 1; test: Ratio of acyclovir EC50 to compound EC50 for Macacine herpesvirus 1 isolate MP1 infected in african green monkey Vero cells; format: functional
[39] = test system: Macacine alphaherpesvirus 1; test: Ratio of acyclovir EC50 to compound EC50 for Macacine herpesvirus 1 isolate MR7 infected in african green monkey Vero cells; format: functional
Human alphaherpesvirus 2 [40] = test: Ratio of acyclovir EC50 to compound EC50 for HSV 2 infected in african green monkey Vero cells; format: functional
[41] = test system: Macacine alphaherpesvirus 1; test: Ratio of acyclovir EC50 to compound EC50 for Macacine herpesvirus 1 isolate MR10 infected in african green monkey Vero cells; format: functional
Human alphaherpesvirus 1 [42] = test: Ratio of acyclovir EC50 to compound EC50 for HSV1 infected in african green monkey Vero cells; format: functional
[43] = test system: Macacine alphaherpesvirus 1; test: Ratio of acyclovir EC50 to compound EC50 for Macacine herpesvirus 1 isolate MR6 infected in african green monkey Vero cells; format: functional
[44] = test system: Macacine alphaherpesvirus 1; test: Ratio of acyclovir EC50 to compound EC50 for Macacine herpesvirus 1 isolate MJ3 infected in african green monkey Vero cells; format: functional
[45] = test system: Macacine alphaherpesvirus 1; test: Ratio of acyclovir EC50 to compound EC50 for Macacine herpesvirus 1 isolate MC2 infected in african green monkey Vero cells; format: functional
[46] = test system: Macacine alphaherpesvirus 1; test: Ratio of acyclovir EC50 to compound EC50 for Macacine herpesvirus 1 isolate E2490 infected in african green monkey Vero cells; format: functional
[47] = test system: Macacine alphaherpesvirus 1; test: Ratio of acyclovir EC50 to compound EC50 for Macacine herpesvirus 1 isolate MJ2 infected in african green monkey Vero cells; format: functional
[48] = test system: Macacine alphaherpesvirus 1; test: Ratio of acyclovir EC50 to compound EC50 for Macacine herpesvirus 1 isolate A1 infected in african green monkey Vero cells; format: functional
[49] = test system: Macacine alphaherpesvirus 1; test: Ratio of acyclovir EC50 to compound EC50 for Macacine herpesvirus 1 isolate MR5 infected in african green monkey Vero cells; format: functional
[50] = test system: Macacine alphaherpesvirus 1; test: Ratio of acyclovir EC50 to compound EC50 for Macacine herpesvirus 1 isolate A4 infected in african green monkey Vero cells; format: functional
[51] = test system: Macacine alphaherpesvirus 1; test: Ratio of acyclovir EC50 to compound EC50 for Macacine herpesvirus 1 isolate A5 infected in african green monkey Vero cells; format: functional
[52] = test system: Macacine alphaherpesvirus 1; test: Ratio of acyclovir EC50 to compound EC50 for Macacine herpesvirus 1 isolate MR4 infected in african green monkey Vero cells; format: functional
[53] = test system: Macacine alphaherpesvirus 1; test: Ratio of acyclovir EC50 to compound EC50 for Macacine herpesvirus 1 isolate MC1 infected in african green monkey Vero cells; format: functional
[54] = test system: Macacine alphaherpesvirus 1; test: Antiviral activity against thymidine kinase deficient Macacine herpesvirus 1 isolate E2490 infected in african green monkey Vero cells by plaque reduction assay; format: functional, organism-based; settings: Macacine alphaherpesvirus 1, isolate E2490, Vero

Nc1nc2c(ncn2COCCO)c(=O)[nH]1 [ACYCLOVIR]
33%: Activity [25]
4.71: pEC50 [1] | pEC50 (Human alphaherpesvirus 1 [2]) | pEC50 [3] | pEC50 [4] | pEC50 [5] | pEC50 [6] | pEC50 (Human alphaherpesvirus 2 [7]) | pEC50 [8] | pEC50 [9] | pEC50 [10] | pEC50 [11] | pEC50 [12] | pEC50 [13] | pEC50 [14] | pEC50 [15] | pEC50 [16] | pEC50 [17] | pEC50 [18] | pEC50 [19] | pEC50 [20] | pEC50 [21] | pEC50 [22] | pEC50 [23] | pEC50 [24] | pEC50 [26] | pEC50 [27]

Cc1cn([C@H]2O[C@@H](CO)[C@H](O)[C@H]2F)c(=O)[nH]c1=O [CLEVUDINE]
100: Ratio EC50 [28] | Ratio EC50 [29] | Ratio EC50 [30] | Ratio EC50 [31] | Ratio EC50 [32] | Ratio EC50 [33] | Ratio EC50 [34] | Ratio EC50 [35] | Ratio EC50 [36] | Ratio EC50 [37] | Ratio EC50 [38] | Ratio EC50 [39] | Ratio EC50 (Human alphaherpesvirus 2 [40]) | Ratio EC50 [41] | Ratio EC50 (Human alphaherpesvirus 1 [42]) | Ratio EC50 [43] | Ratio EC50 [44] | Ratio EC50 [45] | Ratio EC50 [46] | Ratio EC50 [47] | Ratio EC50 [48] | Ratio EC50 [49] | Ratio EC50 [50] | Ratio EC50 [51] | Ratio EC50 [52] | Ratio EC50 [53]

Nc1nc2c(ncn2COC(CO)CO)c(=O)[nH]1 [GANCICLOVIR]
100%: Activity [25]
4.71: pEC50 (Human alphaherpesvirus 1 [2]) | pEC50 (Human alphaherpesvirus 2 [7]) | pEC50 [26]

Nc1ncnc2c1ncn2[C@@H]1O[C@H](CO)[C@@H](O)[C@@H]1O [VIDARABINE]
4.42: pEC50 [54]
4.58: pEC50 [1] | pEC50 (Human alphaherpesvirus 1 [2]) | pEC50 [3] | pEC50 [4] | pEC50 [5] | pEC50 [6] | pEC50 (Human alphaherpesvirus 2 [7]) | pEC50 [8] | pEC50 [9] | pEC50 [10] | pEC50 [11] | pEC50 [12] | pEC50 [13] | pEC50 [14] | pEC50 [15] | pEC50 [16] | pEC50 [17] | pEC50 [18] | pEC50 [19] | pEC50 [20] | pEC50 [21] | pEC50 [22] | pEC50 [23] | pEC50 [24] | pEC50 [26] | pEC50 [27]
